Assay results taken from patent publication US6989252B2, “Hydrogen production using hydrogenase-containing oxygenic photosynthetic organisms” (Midwest Research Institute, priority 1999, dated 2006).

System: H2-producing C. reinhardtii cultures
Assay: H2 gas collection from H2-producing sulfur-deprived cultures after inhibitor addition
Type: cell-based, Chlamydomonas reinhardtii
Settings: inhibitor added to H2-producing sulfur-depleted cultures
Text: Culture bottles (Schott or Roux type) were fitted with an #25 Ace thread and smaller side-ports for liquid sampling. A threaded glass stopper with capillaries for gas sampling was fitted with a Viton O-ring and used to seal the reactor. Threaded side-arm and gas sampling ports were sealed with rubber laminated Teflon septa. Teflon tubing (Aminco, HPLC), attached to one of the gas ports, was used to conduct gas evolved by the algae in the culture bottles to an upside-down graduated cylinder filled with H2O. The gas collection tubing was detached from the culture bottle during liquid and gas sampling to avoid disturbance of gas volume readings in the graduated cylinder.
We, thus, conclude that most of the reductants for H2 production are generated by residual water oxidation activity in sulfur-depleted C. reinhardtii cultures, but that an endogenous substrate may also contribute electrons for the process.

CN(C)C(=O)Nc1ccc(Cl)c(Cl)c1 [DCMU]
rate of H2 gas collection relative to its initial value (% of initial value): about 20%

CC1=C(Br)C(=O)C(C(C)C)=C(Br)C1=O [DBMIB]
inhibition of H2 gas collection: Total inhibition
